Experimental data reported in ChEMBL document CHEMBL4002563 (Eur J Med Chem, 2017).
Activity calls are given as the source filed them. The rule behind the calls is not given here.

How the values were obtained:
Rho GTPase Rac1/CDC42 = Rho GTPase Rac1/CDC42 (Homo sapiens, UniProt P60953+P63000); assay: Inhibition of RAC1/CDC42 in human ovarian cancer cells; format: cell-based
[1] = Inhibition of PAK1/COX2 in human A549 cells harboring Ki-RAS mutant assessed as cell growth inhibition measured after 72 hrs by MTT assay; format: cell-based; conditions: A549, 72 h
B16-F10 = assay: Cytotoxicity against PAK1-independent mouse B16F10 cells assessed as cell growth inhibition measured after 72 hrs by MTT assay; format: functional, cell-based; conditions: B16-F10, 72 h
[2] = biological target: Serine/threonine-protein kinase PAK 1 (Homo sapiens, UniProt Q13153); assay: Inhibition of PAK1 in human A549 cells using myelin basic protein as substrate preincubated for 24 hrs followed by PAK1 immunoprecipation and substrate addition measured after 60 mins by ATP-Glo kinase assay
[3] = biological target: T1, Prostaglandin G/H synthase 2 (Homo sapiens, UniProt P35354); assay: Inhibition of recombinant human COX2 using arachidonic acid as substrate measured after 2 to 5 mins
T1 sequence (P35354 whole entry): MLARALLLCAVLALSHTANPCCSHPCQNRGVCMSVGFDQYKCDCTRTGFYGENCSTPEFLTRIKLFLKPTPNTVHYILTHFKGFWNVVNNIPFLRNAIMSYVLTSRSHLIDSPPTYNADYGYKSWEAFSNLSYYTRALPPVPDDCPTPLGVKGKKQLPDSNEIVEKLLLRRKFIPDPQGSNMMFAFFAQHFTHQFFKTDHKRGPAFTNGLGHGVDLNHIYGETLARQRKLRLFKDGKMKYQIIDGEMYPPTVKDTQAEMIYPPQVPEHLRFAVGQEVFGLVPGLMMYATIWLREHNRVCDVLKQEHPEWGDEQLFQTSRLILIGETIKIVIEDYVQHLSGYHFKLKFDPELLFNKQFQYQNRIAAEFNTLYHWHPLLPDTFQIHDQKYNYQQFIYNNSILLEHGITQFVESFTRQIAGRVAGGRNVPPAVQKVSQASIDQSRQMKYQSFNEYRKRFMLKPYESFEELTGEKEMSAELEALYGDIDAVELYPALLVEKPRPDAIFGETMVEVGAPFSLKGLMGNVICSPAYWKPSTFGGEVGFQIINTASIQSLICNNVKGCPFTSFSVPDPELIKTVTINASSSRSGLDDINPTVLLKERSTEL

EMT6 = assay: Cytotoxicity against multidrug-resistant mouse EMT6 cells at 100 uM measured after 24 hrs by MTT assay; format: functional, cell-based
[4] = Drug-uptake in multidrug-resistant mouse EMT6 cells at 100 uM measured after 1 hr by HPLC method; format: ADME, cell-based; conditions: emt6, 1 h
[5] = Inhibition of PAK1/COX2 in human A549 cells harboring Ki-RAS mutant assessed as cell growth inhibition measured after 72 hrs by trypan blue assay; format: cell-based; conditions: A549, 72 h
[6] = Drug metabolism in human A549 cells assessed as mitochondrial reductase mediated azo dye formation by colorimetric method; format: ADME, cell-based
[7] = Drug-uptake in multidrug-resistant mouse EMT6 cells at 100 uM measured after 6 hrs by HPLC method; format: ADME, cell-based; conditions: emt6, 6 h
LIM1899 = assay: Cytotoxicity against human LIM1899 cells up to 100 uM measured after 24 hrs by trypan blue assay; format: functional, cell-based

Chain of Serine/threonine-protein kinase PAK 1 (Q13153 whole entry): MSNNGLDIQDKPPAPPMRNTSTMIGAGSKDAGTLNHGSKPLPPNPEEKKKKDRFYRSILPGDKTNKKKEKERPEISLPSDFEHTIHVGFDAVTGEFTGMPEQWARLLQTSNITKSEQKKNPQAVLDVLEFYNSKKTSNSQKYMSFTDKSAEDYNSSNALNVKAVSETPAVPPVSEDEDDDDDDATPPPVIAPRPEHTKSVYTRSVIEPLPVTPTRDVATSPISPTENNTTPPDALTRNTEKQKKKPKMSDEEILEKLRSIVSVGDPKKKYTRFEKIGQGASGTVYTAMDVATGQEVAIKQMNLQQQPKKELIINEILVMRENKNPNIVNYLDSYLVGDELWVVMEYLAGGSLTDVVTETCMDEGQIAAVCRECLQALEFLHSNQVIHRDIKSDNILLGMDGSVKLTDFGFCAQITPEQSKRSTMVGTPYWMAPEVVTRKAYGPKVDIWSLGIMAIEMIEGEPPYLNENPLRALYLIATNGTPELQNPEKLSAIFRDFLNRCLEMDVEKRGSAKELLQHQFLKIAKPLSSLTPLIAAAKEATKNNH

Drug metabolism [6]	Drug uptake [7]	SMILES	IC50 (Rho GTPase Rac1/CDC42) [µM]	IC50 [1] [µM]	IC50 (B16-F10) [µM]	IC50 [2] [µM]	IC50 [3] [µM]	Activity (EMT6)	Drug uptake [4] [nmol]	IC50 [5] [µM]	Activity (LIM1899)
–	–	O=C(c1ccccc1)c1ccc2n1CC[C@H]2C(=O)O	1	–	–	–	–	–	–	–	–
–	–	O=C(c1ccccc1)c1ccc2n1CCC2C(=O)O (stereo not given) [KETOROLAC]	2	13	30	36	0.14	inactive	0.37	–	–
Metabolite_Detected	Not Active	COc1ccccc1-n1cc(COC(=O)C2CCn3c(C(=O)c4ccccc4)ccc32)nn1 (stereo not given)	–	–	–	0.065	–	inactive	3.75	0.024	inactive
